Test [1] relates to EphA2. Put plainly: EphA2 tyrosine phosphorylation in COS7 cells. The test is classed as cell-based. Particulars: for tyrosine phosphorylation of endogenous EphA2: COS7 cells stimulated with ephrin-A1 Fc. As for the experimental part:
FIGS. 6A-6F. A. HT22 neuronal cells pretreated with the indicated concentrations of compounds 1 or 2 for 15 min were stimulated with 0.5 μg/mL ephrin-A5 Fc (+) or Fc as a control (−) for 20 min in the continued presence of the compounds. EphA4 immunoprecipitates were probed with anti-phosphotyrosine antibody (PTyr) and reprobed for EphA4. C indicates immunoprecipitations performed with control antibodies from non-immunized rabbits. […] Error bars represent the standard error from 4 experiments for compound 1 and 3 experiments for compound 2. […] C. COS7 cells pretreated with the indicated concentrations of compounds 1 or 2 for 15 min were stimulated with 0.1 μg/mL ephrin-A1 Fc or Fc as a control in the continued presence of the compounds. EphA2 immunoprecipitates were probed with anti-phosphotyrosine antibody (PTyr) and reprobed for EphA2. C indicates immunoprecipitations performed with control antibodies. […] Error bars represent the standard error from 2 experiments. Statistical analyses were performed as in (B). HUVE cells were left unstimulated or stimulated with TNFα for 2 hours in the presence of 400 μM compound 1. Duplicate untreated samples are shown. C indicates immunoprecipitations performed with control antibodies. EphA2 immunoprecipitates were probed with anti-phosphotyrosine antibody (PTyr) and reprobed for EphA2. Levels of EphA2 phosphorylation quantified from immunoblots and normalized to the amount of immunoprecipitated EphA2 were also performed. […] The same protocol described in (C) was used, except that COS7 cells were stimulated with 0.5 μg/mL of ephrin-B2 Fc and the EphB2 receptor was immunoprecipitated. F. COS7 cells pretreated with the indicated concentrations of compounds 1 or 2 were stimulated with EGF (+) or left unstimulated (−). Lysates were probed with anti-phosphotyrosine antibody (PTyr) and reprobed for the EGF receptor.
Measurement of Receptor Tyrosine Phosphorylation in Cells—HT22 neuronal cells, which endogenously express EphA4, are derived from immortalized mouse hippocampal neurons (Li et al. (1997) Neuron 19(2), 453-463). COST cells, which endogenously express EphA2, EphB2 and the EGF receptor (EGFR), were obtained from ATCC. Both cell lines were grown in Dulbecco's Modified Eagle's Medium (DMEM) (Mediatech, Inc, Herndon, Va.) with 10% fetal bovine serum (FBS) (Hyclone, Logan, Utah) and Pen/Strep. For EphA4 immunoprecipitations, HT22 cells were serum-starved overnight in 0.5% FBS in DMEM and incubated for 15 min with the compounds or DMSO as a control. The cells were then stimulated with 0.5 μg/mL ephrin-A5 Fc, ephrin-A4 Fc or Fc for 20 min in the continued presence of the compounds. […] The protein concentration was calculated using the BCA protein assay kit (Pierce Biotecnology, Rockford, Ill.). […]

The target in test [2] is EphA2 (Homo sapiens, UniProt P29317). Put plainly: ELISA, EphA2-ephrin-A5 binding. Particulars: assuming competitive inhibition; read-out: Ki for inhibition of EphA2-ephrin-A5 binding (Cheng-Prusoff). The procedure: (§1) ELISA Assays and K, Determination—Protein A-coated wells (Pierce Biotecnology, Rockford, Ill.) were used to immobilize ephrin Fc fusion proteins (R&D Systems, Minneapolis, Minn.). Compounds at different concentrations were incubated with EphA4 AP (Cheng and Flanagan, (1994) Cell 79(1), 157-168) or EphA2 AP (Koolpe et al. (2002) J Biol Chem 277(49), 46974-46979) for 3 hours. Alternatively, Eph receptor Fc fusion proteins were immobilized on protein A-coated wells and ephrin-A5 AP (Menzel et al. (2001) Developmental Biology 230(1), 74-88) or ephrin-B2 AP (GeneHunter, Nashville, Tenn.) were added with the compounds. The amount of bound AP-fusion protein was quantified using pNPP as the substrate. […]
To calculate the inhibition constant (KO values, the binding of ephrin-A5 AP to EphA4 Fc immobilized on protein A-coated wells was measured in the absence and in the presence of the compounds at different concentrations. Each data set was fitted to the Michaelis-Menten equation: B=Bmax [S]/(KD+[S]), where [S] is the concentration of ephrin AP fusion protein and KD is the dissociation constant observed in the absence or in the presence of the compound, using non linear regression and the program GraphPad (Prism). To evaluate whether the inhibition is competitive, noncompetitive or uncompetitive the KD and Bmax values were determined at different compound concentrations. […]

For the next test, the system named is EphA and EphB receptors. As to the kind of experiment: ELISA, ephrin-A5 AP / ephrin-B2 AP binding to immobilized EphA and EphB receptor Fc fusion proteins. The procedure:
FIGS. 3A and 3B. A. Ephrin-A5 AP binding to immobilized EphA receptor Fc fusion proteins and ephrin-B2 AP binding to immobilized EphB receptor Fc fusion proteins were measured in the presence of the indicated concentrations of compounds 1 and 2. […] Error bars indicate standard error from 3 measurements. B. IC50 values for inhibition of EphA4 AP and EphA2 AP binding to the indicated immobilized ephrins by compounds 1 and 2.
as §1, with “substrate. Alkaline phosphatase activity from wells with Fc only was subtracted as background.” for “substrate.”

This note sets out measurements from patent US20100256214A1, “EPH RECEPTOR LIGANDS AND METHODS OF USE” (Burnham Institute for Medical Research, priority 2009, published 2010).

pKi: −log10 of the molar value.

For orientation: pKi means the negative decadic logarithm of the Ki, by convention in mol/L.

EphA2 (Homo sapiens, UniProt P29317), sequence (P29317 25-534 limits assumed, species assumed): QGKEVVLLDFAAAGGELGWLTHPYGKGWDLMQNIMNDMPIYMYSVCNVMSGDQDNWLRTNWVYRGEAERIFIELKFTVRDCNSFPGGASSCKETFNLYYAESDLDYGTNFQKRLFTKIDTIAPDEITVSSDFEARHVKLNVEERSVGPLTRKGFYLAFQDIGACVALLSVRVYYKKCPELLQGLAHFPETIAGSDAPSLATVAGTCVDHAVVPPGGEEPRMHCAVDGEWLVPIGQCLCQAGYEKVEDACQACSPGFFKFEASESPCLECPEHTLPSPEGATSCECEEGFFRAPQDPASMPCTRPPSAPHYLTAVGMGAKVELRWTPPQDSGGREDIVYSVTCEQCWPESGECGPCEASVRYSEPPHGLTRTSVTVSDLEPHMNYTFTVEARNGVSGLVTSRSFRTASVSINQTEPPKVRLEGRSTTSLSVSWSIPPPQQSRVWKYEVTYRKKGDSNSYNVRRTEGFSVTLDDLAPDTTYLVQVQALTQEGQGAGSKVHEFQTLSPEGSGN

`Cc1ccc(C)n1-c1ccc(C(=O)O)c(O)c1` [compound 1, 4-(2,5-dimethyl-pyrrol-1-yl)-2-hydroxy-benzoic acid]: in the test on EphA2 [1], the “ephrin-dependent degradation of EphA2” value was “prevented” and the “tyrosine phosphorylation of endogenous EphA2” value is listed as “inhibited”. The pKi on EphA2 [2] is 4.85 to 4.96. Moreover, in the test with EphA and EphB receptors, the “selectivity of inhibition of ephrin binding among EphA and EphB receptors” value is “efficiently inhibited ephrin binding only to EphA4 and EphA2”.

In the case of `Cc1ccc(C)n1-c1ccc(O)c(C(=O)O)c1` [compound 2, 5-(2,5 dimethyl-pyrrol-1-yl)-2-hydroxy-benzoic acid], in the test on EphA2 [1], the “ephrin-dependent degradation of EphA2” value was “prevented” and the “tyrosine phosphorylation of endogenous EphA2” value was “inhibited”. Besides, the negative-log Ki (pKi) on EphA2 [2] is 4.89 to 5.00. Also, the “selectivity of inhibition of ephrin binding among EphA and EphB receptors” value in the test on EphA and EphB receptors is “efficiently inhibited ephrin binding only to EphA4 and EphA2”.
